Test results published in patent publication US20240400555A1 (Initial Therapeutics, Inc., priority 2023, published 2024).
Where two headings read alike, the source gives them in different places.

Test system: MV-4-11 cells
Assay: Cell Viability Assay in MV-4-11 Cells
Assay type: cell-based
Conditions: Homo sapiens, MV4-11, 72 h
Description: MV-4-11 cells (ATCC) were seeded into sterile 96-well flat clear bottom white polystyrene TC-treated microplates (Corning) at 7,000 cells/well in 150 μL complete growth medium (Iscove's Modified Dulbecco's Medium (IMDM) (Gibco), 10% Heat Inactivated Fetal Bovine Serum (HyClone), 1% Penicillin-Streptomycin-L-Glutamine (HyClone), 1% GlutaMAX (Gibco)). […] After 72 h incubation, plates were removed from incubators and allowed to equilibrate to room temperature (˜10 min) before adding 50 μL per well Cell-Titer Glo reagent (Promega) using a WellJet (Integra Biosciences) dispenser. Plates were then incubated at room temperature for 2-20 min prior to measurement of luminescence on an Envision (Perkin Elmer) plate reader. Data were normalized to DMSO (100% viability) and analyzed using a non-linear four-parameter curve fit.

[1] = MV-4-11 cells, 72 h, Cell-Titer Glo, read-out: IC50

| SMILES | IC50 [1] [nM] | IC50 [nM] |
| --- | --- | --- |
| O=C(c1ccc(-n2nnc3cccnc32)cc1F)N(c1nccc2cc(/C=C/CO)ccc12)[C@@H]1CCCNC1 [Example 331, (R)-4-(3H-[1,2,3]triazolo[4,5-b]pyridin-3-yl)-2-fluoro-N-(6-(3-hydroxyprop-1-en-1-yl)isoquinolin-1-yl)-N-(piperidin-3-yl)benzamide] | 81 |  |
| Cc1cccc2ccnc(N(C(=O)c3ccc(-c4ccc[nH]c4=O)cc3)[C@@H]3CCCNC3)c12 [Example 332, (R)—N-(8-methylisoquinolin-1-yl)-4-(2-oxo-1,2-dihydropyridin-3-yl)-N-(piperidin-3-yl)benzamide] | 2700 |  |
| Cc1cccc2ccnc(N(C(=O)c3ccc(C#N)cc3-c3ccn[nH]3)[C@@H]3CCCNC3)c12 [Example 333, 4-cyano-N-(8-methyl-1-isoquinolyl)-N-[(3R)-3-piperidyl]-2-(1H-pyrazol-5-yl)benzamide] | > 10000 |  |
| Cc1cccc2ccnc(N(C(=O)c3ccc(C#N)cc3-c3cccnc3)[C@@H]3CCCNC3)c12 [Example 334, 4-cyano-N-(8-methyl-1-isoquinolyl)-N-[(3R)-3-piperidyl]-2-(3-pyridyl)benzamide] |  | > 10000 |
| Cc1cccc2ccnc(N(C(=O)c3ccc(C#N)cc3-c3ccccn3)[C@@H]3CCCNC3)c12 [Example 335, 4-cyano-N-(8-methyl-1-isoquinolyl)-N-[(3R)-3-piperidyl]-2-(2-pyridyl)benzamide] | 2600 |  |
| Cc1cccc2ccnc(N(C(=O)c3ccc(C#N)c(-c4cccc(-c5cccnc5)c4)c3)[C@@H]3CCCNC3)c12 [Example 336, 4-cyano-N-(8-methyl-1-isoquinolyl)-N-[(3R)-3-piperidyl]-3-[3-(3-pyridyl)phenyl]benzamide] | 270 |  |
| O=C(c1ccc(-n2nnc3cccnc32)cc1F)N(c1nccc2ccc(/C=C\CO)cc12)[C@@H]1CCCNC1 [Example 337, (R,Z)-4-(3H-[1,2,3]triazolo[4,5-b]pyridin-3-yl)-2-fluoro-N-(7-(3-hydroxyprop-1-en-1-yl)isoquinolin-1-yl)-N-(piperidin-3-yl)benzamide] | 250 |  |
| Cc1cccc2ccnc(N(C(=O)N3CCC[C@@H](c4ccc(-n5cc6cccc(C(N)=O)c6n5)cc4)C3)[C@@H]3CCCNC3)c12 [Example 339, 2-(4-((S)-1-((8-methylisoquinolin-1-yl)((R)-piperidin-3-yl)carbamoyl)piperidin-3-yl)phenyl)-2H-indazole-7-carboxamide] | 550 |  |
| Cc1cccc2ccnc(N(C(=O)N3CCC[C@@H](n4nc(-c5ccc(Oc6ccccc6)cc5)c5c(N)ncnc54)C3)[C@@H]3CCCNC3)c12 [Example 340, (R)-3-(4-amino-3-(4-phenoxyphenyl)-1H-pyrazolo[3,4-d]pyrimidin-1-yl)-N-(8-methylisoquinolin-1-yl)-N—((R)-piperidin-3-yl)piperidine-1-carboxamide] | 860 |  |
| Cc1cccc2ccnc(N(C(=O)N3CCCC(c4ncc(-c5ccccc5)[nH]4)C3)[C@@H]3CCCNC3)c12 (stereo partly drawn) [Example 341, N-(8-methylisoquinolin-1-yl)-3-(5-phenyl-1H-imidazol-2-yl)-N—((R)-piperidin-3-yl)piperidine-1-carboxamide] | 370 |  |
| Cc1cccc2ccnc(N(C(=O)N3CCCC4(CCN(C(=O)OCc5ccccc5)CC4)C3)[C@@H]3CCCNC3)c12 [Example 342, benzyl (R)-2-((8-methylisoquinolin-1-yl)(piperidin-3-yl)carbamoyl)-2,9-diazaspiro [5.5]undecane-9-carboxylate] | 2000 |  |
| Cc1cccc2ccnc(N(C(=O)N3CCc4[nH]nc(-c5ccccc5)c4C3)[C@@H]3CCCNC3)c12 [Example 343, (R)—N-(8-methylisoquinolin-1-yl)-3-phenyl-N-(piperidin-3-yl)-1,4,6,7-tetrahydro-5H-pyrazolo[4,3-c]pyridine-5-carboxamide] | 1400 |  |
| Cc1cccc2ccnc(N(C(=O)N3CCC[C@H](CCC(=O)Nc4ccccc4)C3)[C@@H]3CCCNC3)c12 [Example 344, N-(8-methylisoquinolin-1-yl)-3-(3-oxo-3-(phenylamino)propyl)-N—((R)-piperidin-3-yl) piperidine-1-carboxamide] |  | 930 |
